Measured values as given in the kinase profiling compilation of Christmann-Franck et al. (2016).

How the values were obtained:
Experiment in all cases: radiometric filter-binding kinase assay, Kinase HotSpot
Conditions in all cases: compound 0.5 µM; ATP 10 µM
[1] = target: CSK (human) (UniProt P41240)
[2] = target: NEK1 (human) (UniProt Q96PY6)
[3] = target: CDK4 CCND3 (human) (UniProt P30281+P11802)
[4] = target: MAP2K2 (human) (UniProt P36507)
[5] = target: MAP3K9 (human) (UniProt P80192)
[6] = target: CDK1 CCNA2 (human) (UniProt P06493+P20248)
[7] = target: PIM2 (human) (UniProt Q9P1W9)
Sequence of PIM2 (human) (Q9P1W9 whole entry, looked up): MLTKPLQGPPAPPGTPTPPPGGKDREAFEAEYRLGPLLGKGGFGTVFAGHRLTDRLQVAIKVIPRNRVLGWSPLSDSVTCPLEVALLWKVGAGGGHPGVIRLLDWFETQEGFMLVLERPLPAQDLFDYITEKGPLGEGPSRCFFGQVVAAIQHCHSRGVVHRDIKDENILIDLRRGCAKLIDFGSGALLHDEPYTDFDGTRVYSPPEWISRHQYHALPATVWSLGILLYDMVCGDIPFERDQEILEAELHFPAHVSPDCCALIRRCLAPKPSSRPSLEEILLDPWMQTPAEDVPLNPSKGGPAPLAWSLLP

[8] = target: INSRR (human) (UniProt P14616)
[9] = target: SRC (human) (UniProt P12931)
[10] = target: CAMK2G (human) (UniProt Q13555)
[11] = target: AKT2 (human) (UniProt P31751)
[12] = target: PIM3 (human) (UniProt Q86V86)
[13] = target: STK24 (human) (UniProt Q9Y6E0)
Sequence of STK24 (human) (Q9Y6E0 whole entry, looked up): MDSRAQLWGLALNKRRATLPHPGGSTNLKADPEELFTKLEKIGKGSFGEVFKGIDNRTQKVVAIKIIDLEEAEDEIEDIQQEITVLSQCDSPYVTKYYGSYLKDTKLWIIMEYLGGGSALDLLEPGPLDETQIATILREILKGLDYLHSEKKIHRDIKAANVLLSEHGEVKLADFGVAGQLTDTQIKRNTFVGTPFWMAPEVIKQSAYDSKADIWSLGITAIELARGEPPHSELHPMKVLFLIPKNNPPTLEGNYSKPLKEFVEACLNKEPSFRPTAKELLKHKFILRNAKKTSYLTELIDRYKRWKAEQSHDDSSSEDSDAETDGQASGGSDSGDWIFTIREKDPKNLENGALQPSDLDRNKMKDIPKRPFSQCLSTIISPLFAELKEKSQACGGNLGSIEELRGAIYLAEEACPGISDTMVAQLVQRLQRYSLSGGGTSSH

[14] = target: ADRBK1 (human) (UniProt P25098)
[15] = target: PDGFRA (human) (UniProt P16234)
[16] = target: TGFBR1 (human) (UniProt P36897)
[17] = target: PRKX (human) (UniProt P51817)
Sequence of PRKX (human) (P51817 whole entry, looked up): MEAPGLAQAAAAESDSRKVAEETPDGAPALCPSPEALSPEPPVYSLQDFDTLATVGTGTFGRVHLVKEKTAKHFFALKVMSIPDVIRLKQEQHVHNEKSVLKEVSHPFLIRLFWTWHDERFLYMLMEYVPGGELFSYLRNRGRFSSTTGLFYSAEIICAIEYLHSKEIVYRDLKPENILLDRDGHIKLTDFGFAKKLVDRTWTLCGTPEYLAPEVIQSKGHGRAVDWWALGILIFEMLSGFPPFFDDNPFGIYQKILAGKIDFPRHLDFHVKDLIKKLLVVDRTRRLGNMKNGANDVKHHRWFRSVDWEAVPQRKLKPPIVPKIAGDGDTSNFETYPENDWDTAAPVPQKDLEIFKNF

[18] = target: JAK1 JH1 catalytic (human) (UniProt P23458)
Sequence of JAK1 JH1 catalytic (human) (P23458 whole entry, looked up): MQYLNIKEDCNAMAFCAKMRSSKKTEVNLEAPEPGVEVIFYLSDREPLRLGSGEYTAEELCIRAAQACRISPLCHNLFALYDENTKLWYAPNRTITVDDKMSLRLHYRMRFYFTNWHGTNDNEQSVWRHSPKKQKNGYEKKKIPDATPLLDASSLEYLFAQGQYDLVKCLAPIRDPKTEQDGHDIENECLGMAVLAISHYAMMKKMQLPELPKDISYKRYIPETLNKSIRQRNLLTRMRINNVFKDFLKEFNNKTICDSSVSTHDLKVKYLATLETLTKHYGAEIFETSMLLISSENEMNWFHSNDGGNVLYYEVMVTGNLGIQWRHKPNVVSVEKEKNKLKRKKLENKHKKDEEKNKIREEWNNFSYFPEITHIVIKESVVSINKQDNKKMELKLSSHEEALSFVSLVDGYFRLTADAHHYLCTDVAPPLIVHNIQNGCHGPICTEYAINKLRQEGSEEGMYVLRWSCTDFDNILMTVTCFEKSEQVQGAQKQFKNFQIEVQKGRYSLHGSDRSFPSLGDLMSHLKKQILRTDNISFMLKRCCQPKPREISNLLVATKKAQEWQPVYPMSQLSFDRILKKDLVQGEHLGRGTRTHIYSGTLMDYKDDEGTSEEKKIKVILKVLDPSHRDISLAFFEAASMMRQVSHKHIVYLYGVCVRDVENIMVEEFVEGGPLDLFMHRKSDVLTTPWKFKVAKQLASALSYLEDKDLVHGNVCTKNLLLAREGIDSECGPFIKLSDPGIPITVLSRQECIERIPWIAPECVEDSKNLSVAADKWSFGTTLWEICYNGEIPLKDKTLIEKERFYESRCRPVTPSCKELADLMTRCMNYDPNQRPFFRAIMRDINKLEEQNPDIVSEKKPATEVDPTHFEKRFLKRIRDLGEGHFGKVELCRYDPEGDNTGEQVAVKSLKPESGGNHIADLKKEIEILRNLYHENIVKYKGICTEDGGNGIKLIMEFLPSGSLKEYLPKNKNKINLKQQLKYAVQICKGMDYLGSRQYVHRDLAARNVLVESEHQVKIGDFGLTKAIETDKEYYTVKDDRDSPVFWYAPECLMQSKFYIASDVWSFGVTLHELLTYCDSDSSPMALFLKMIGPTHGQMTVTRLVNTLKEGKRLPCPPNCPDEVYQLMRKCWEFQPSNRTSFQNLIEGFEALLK

[19] = target: PAK7 (human) (UniProt Q9P286)
Sequence of PAK7 (human) (Q9P286 whole entry, looked up): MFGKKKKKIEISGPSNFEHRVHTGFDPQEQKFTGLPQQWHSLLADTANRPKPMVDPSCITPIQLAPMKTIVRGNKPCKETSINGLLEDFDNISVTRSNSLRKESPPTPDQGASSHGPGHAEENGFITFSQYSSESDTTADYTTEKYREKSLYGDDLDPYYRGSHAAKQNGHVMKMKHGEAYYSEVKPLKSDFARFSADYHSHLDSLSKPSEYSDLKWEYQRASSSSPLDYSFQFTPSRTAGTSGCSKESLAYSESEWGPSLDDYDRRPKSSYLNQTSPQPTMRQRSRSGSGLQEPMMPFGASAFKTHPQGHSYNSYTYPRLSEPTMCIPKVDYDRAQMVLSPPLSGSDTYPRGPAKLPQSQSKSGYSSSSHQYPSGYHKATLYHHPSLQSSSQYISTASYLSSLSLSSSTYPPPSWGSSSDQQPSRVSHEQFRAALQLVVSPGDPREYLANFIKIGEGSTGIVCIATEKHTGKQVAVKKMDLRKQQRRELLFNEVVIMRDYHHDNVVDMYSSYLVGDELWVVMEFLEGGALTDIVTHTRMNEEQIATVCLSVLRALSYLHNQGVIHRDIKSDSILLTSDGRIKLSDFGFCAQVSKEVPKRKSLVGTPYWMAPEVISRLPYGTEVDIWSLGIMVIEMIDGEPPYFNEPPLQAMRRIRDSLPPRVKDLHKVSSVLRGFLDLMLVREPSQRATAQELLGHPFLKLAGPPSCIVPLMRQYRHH

[20] = target: FRK (human) (UniProt P42685)
[21] = target: HCK (human) (UniProt P08631)
[22] = target: FGR (human) (UniProt P09769)
[23] = target: SLK (human) (UniProt Q9H2G2)
[24] = target: MAP3K2 (human) (UniProt Q9Y2U5)
[25] = target: MAP3K11 (human) (UniProt Q16584)
[26] = target: NEK9 (human) (UniProt Q8TD19)
[27] = target: IRAK4 (human) (UniProt Q9NWZ3)
Sequence of IRAK4 (human) (Q9NWZ3 whole entry, looked up): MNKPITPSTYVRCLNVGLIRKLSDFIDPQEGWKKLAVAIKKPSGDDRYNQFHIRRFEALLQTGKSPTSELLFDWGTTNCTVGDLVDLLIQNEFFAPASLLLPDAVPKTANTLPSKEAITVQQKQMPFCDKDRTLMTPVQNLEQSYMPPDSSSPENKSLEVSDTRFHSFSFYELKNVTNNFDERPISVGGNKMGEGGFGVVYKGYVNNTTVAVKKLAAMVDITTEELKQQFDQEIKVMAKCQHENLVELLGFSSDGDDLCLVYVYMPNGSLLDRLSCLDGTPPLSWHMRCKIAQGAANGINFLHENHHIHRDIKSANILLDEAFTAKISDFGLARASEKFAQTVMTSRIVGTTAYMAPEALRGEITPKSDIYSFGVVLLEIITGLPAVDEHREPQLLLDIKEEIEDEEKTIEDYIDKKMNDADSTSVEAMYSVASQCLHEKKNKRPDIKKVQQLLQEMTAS

[28] = target: CAMK4 (human) (UniProt Q16566)
[29] = target: GSK3A (human) (UniProt P49840)
[30] = target: MAPK12 (human) (UniProt P53778)
Sequence of MAPK12 (human) (P53778 whole entry, looked up): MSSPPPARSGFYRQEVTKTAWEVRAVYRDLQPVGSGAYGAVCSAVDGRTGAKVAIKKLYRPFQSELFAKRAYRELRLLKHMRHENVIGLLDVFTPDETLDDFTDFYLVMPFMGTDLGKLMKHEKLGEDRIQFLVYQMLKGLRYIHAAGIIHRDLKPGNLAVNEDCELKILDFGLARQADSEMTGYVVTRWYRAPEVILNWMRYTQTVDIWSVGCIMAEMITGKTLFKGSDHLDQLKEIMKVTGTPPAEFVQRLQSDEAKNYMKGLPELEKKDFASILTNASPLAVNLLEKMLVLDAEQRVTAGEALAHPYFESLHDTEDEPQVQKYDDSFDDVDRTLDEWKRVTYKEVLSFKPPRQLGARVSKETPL

[31] = target: CDK1 CCNB1 (human) (UniProt P06493+P14635)
[32] = target: NTRK3 (human) (UniProt Q16288)
[33] = target: TEK (human) (UniProt Q02763)
[34] = target: MAP4K2 (human) (UniProt Q12851)
[35] = target: CDK3 CCNE1 (human) (UniProt Q00526+P24864)
Sequence of CDK3 CCNE1 (human) (P24864 whole entry, looked up): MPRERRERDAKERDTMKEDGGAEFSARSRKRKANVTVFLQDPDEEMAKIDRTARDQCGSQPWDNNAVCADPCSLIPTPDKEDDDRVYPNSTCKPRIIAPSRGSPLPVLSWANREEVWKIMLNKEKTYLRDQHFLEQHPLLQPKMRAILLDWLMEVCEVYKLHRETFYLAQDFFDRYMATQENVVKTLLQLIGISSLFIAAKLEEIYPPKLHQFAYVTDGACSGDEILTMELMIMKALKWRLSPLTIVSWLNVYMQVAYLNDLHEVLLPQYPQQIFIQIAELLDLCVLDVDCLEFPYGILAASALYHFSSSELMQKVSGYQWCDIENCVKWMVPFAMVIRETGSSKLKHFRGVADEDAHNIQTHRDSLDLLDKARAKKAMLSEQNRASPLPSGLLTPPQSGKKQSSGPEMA
Sequence of CDK3 CCNE1 (human) (Q00526 whole entry, looked up): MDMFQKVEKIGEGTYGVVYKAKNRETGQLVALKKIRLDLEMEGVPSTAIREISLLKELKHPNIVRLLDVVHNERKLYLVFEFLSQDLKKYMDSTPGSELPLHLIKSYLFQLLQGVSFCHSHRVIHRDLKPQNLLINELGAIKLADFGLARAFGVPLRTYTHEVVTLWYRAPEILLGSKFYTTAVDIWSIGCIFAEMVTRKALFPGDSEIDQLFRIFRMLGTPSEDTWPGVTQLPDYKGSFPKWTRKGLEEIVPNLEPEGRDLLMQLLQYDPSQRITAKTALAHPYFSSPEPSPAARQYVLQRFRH

[36] = target: WNK2 (human) (UniProt Q9Y3S1)
[37] = target: HIPK3 (human) (UniProt Q9H422)
[38] = target: TNK2 (human) (UniProt Q07912)
[39] = target: AURKC (human) (UniProt Q9UQB9)
[40] = target: STK33 (human) (UniProt Q9BYT3)
[41] = target: MAP3K3 (human) (UniProt Q99759)
[42] = target: CHEK1 (human) (UniProt O14757)

Sequence of MAP2K2 (human) (P36507 whole entry, looked up): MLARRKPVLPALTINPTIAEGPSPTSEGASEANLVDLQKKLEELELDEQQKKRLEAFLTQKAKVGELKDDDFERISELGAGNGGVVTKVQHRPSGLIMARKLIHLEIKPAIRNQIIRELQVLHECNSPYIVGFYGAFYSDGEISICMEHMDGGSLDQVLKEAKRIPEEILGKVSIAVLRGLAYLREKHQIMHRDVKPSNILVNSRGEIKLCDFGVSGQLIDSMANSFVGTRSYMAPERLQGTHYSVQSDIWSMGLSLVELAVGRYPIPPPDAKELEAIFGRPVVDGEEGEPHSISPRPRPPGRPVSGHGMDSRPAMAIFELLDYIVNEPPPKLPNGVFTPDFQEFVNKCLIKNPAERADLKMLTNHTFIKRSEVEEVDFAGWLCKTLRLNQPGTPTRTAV

With `Oc1cccc(-c2nc(N3CCOCC3)c3oc4ncccc4c3n2)c1` the residual activity [1] was 88.3%, the residual activity [2] was 77.8% and the residual activity [3] was 92.5%. It also gave a residual activity [4] of 85%, a residual activity [5] of 103% and a residual activity [6] of 84.4%. For the same compound, the residual activity [7] was 96.9%, the residual activity [8] was 114% and the residual activity [9] was 97.2%. It also gave a residual activity [10] of 100%, a residual activity [11] of 99.1% and a residual activity [12] of 104%. For the same compound, the residual activity [13] was 100%, the residual activity [14] was 107% and the residual activity [15] was 99.4%. The residual activity [16] was 95%, the residual activity [17] was 96.2% and the residual activity [18] was 104%. It also gave a residual activity [19] of 92.8%, a residual activity [20] of 91.3% and a residual activity [21] of 91.9%. It also gave a residual activity [22] of 94.8%, a residual activity [23] of 101% and a residual activity [24] of 103%. For the same compound, the residual activity [25] was 96.5%, the residual activity [26] was 99.3% and the residual activity [27] was 104%. The residual activity [28] was 103%, the residual activity [29] was 90.2% and the residual activity [30] was 93.4%. The residual activity [31] was 108%, the residual activity [32] was 91.1% and the residual activity [33] was 87.7%. It also gave a residual activity [34] of 93%, a residual activity [35] of 93.9% and a residual activity [36] of 119%. The residual activity [37] was 93.8%, the residual activity [38] was 89.6% and the residual activity [39] was 98.1%.

With `CC#CC(=O)Nc1cc2c(Nc3ccc(F)c(Cl)c3)ncnc2cn1` the residual activity [40] was 88.5%, the residual activity [1] was 100% and the residual activity [2] was 105%. The residual activity [3] was 105%, the residual activity [4] was 106% and the residual activity [5] was 95.8%. The residual activity [6] was 96.5%, the residual activity [7] was 111% and the residual activity [8] was 101%. For the same compound, the residual activity [9] was 97.7%, the residual activity [10] was 97.7% and the residual activity [12] was 89.1%. For the same compound, the residual activity [13] was 107%, the residual activity [14] was 98.3% and the residual activity [15] was 94.9%. For the same compound, the residual activity [16] was 98.7%, the residual activity [17] was 103% and the residual activity [18] was 104%. For the same compound, the residual activity [19] was 102%, the residual activity [20] was 102% and the residual activity [21] was 92.2%. For the same compound, the residual activity [22] was 89.6%, the residual activity [23] was 93.6% and the residual activity [24] was 107%. It also gave a residual activity [41] of 107%, a residual activity [25] of 99.3% and a residual activity [26] of 104%. The residual activity [27] was 102%, the residual activity [28] was 97.4% and the residual activity [29] was 104%. It also gave a residual activity [30] of 99.4%, a residual activity [31] of 99.5% and a residual activity [32] of 95.3%. For the same compound, the residual activity [33] was 99.7%, the residual activity [34] was 114% and the residual activity [42] was 106%. For the same compound, the residual activity [35] was 96.8%, the residual activity [36] was 107% and the residual activity [37] was 92.9%. The residual activity [38] was 95.1% and the residual activity [39] was 95.9%.

In the case of `CCOC(=O)c1c(C)[nH]c(/C=C2\C(=O)Nc3ccccc32)c1C`, the residual activity [40] is reported as 83.7%, the residual activity [1] is reported as 104% and the residual activity [2] is reported as 92.5%. The residual activity [3] was 106%, the residual activity [4] was 102% and the residual activity [5] was 61.6%. The residual activity [6] was 96.3%, the residual activity [7] was 97.7% and the residual activity [8] was 93.8%. The residual activity [9] was 93.8%, the residual activity [10] was 97.6% and the residual activity [11] was 87.6%. For the same compound, the residual activity [12] was 75.1%, the residual activity [13] was 82.5% and the residual activity [14] was 98.2%. For the same compound, the residual activity [15] was 82.8%, the residual activity [16] was 99.7% and the residual activity [17] was 94.8%. For the same compound, the residual activity [18] was 97.1%, the residual activity [19] was 83.9% and the residual activity [20] was 95.3%. The residual activity [21] was 92.6%, the residual activity [22] was 79.3% and the residual activity [23] was 89.8%. It also gave a residual activity [24] of 108%, a residual activity [41] of 92.8% and a residual activity [25] of 47%. For the same compound, the residual activity [26] was 80.8%, the residual activity [27] was 96.8% and the residual activity [28] was 97.7%. For the same compound, the residual activity [29] was 93.5%, the residual activity [30] was 101% and the residual activity [31] was 100%. The residual activity [32] was 27.9%, the residual activity [34] was 95.5% and the residual activity [42] was 89.4%. The residual activity [35] was 94%, the residual activity [36] was 100% and the residual activity [37] was 94.5%. For the same compound, the residual activity [38] was 92.7% and the residual activity [39] was 89.1%.
